Results from ChEMBL document CHEMBL5442663, “ASAP - Solubility” (2024).
≈ marks a conversion by molar mass, not a printed value.

Assay: Kinetic solubility of compound by measuring concentration at pH 7.4 in saturated PBS buffer by UV LCMS/MS using calibration curves. The assay has been performed by Enamine biological services, Bienta Ltd.The protocol is publicly available: dx.doi.org/10.17504/protocols.io.j8nlk8y41l5r/v1
Assay type: physicochemical
Conditions: PBS buffer
A solubility kinetic of 367 µM (≈ 134 µg/mL) was found for `COc1ccc([C@H](Cc2nnn[nH]2)NC(=O)c2ncnc3[nH]ccc23)cc1` in this work. A solubility kinetic of 358 µM (≈ 144 µg/mL) was found for `C[C@H](C(=O)O)[C@@H](NC(=O)c1ncnc2[nH]ccc12)c1ccc(Br)cc1` in this work. A solubility kinetic of 19 µM (≈ 9.04 µg/mL) was found for `CC(C)[C@H](Nc1ncnc2[nH]c(-c3cnn(CC(=O)N(C)C)c3)cc12)c1ccc2c(c1)OCCO2` in this work.
